Assay: Kinetic solubility in PBS (nephelometer)
Format: physicochemical
Settings: Dulbecco's phosphate-buffered saline (DPBS), 25 °C, pH 7.2, aqueous buffer, kinetic from dmso stock, 1% DMSO, room temperature, n = 7
Text: Anticipating that the carboxylate side chain may hinder BBB penetrance, we synthesized and biologically screened a series of 2i prodrugs with ester and amide masking groups. With the classical physiochemical parameters required for brain exposure (i.e., molecular weight, MW, lipophilicity, and topological polar surface area, TPSA) and drug release mechanisms beyond the BBB in mind, we focused on simple alkyl-based promoieties. Our selected lead compound (2i), a close analogue (2a), and their corresponding prodrugs (2l–r) were studied in vitro to ascertain drug solubility, metabolic stability in liver microsomes (LMs), plasma stability, mouse brain homogenate stability, and cytochrome P450 (CYP450) inhibition (Tables S3 and S4 for predicted absorption, distribution, metabolism, and excretion or ADME parameters). […]
Methods for Kinetic Solubility Experiments
The test compounds were first dissolved in DMSO to provide stock solutions of either 30 mM or 60 mM. Kinetic solubility experiments were then performed in a 96-well microtiter plate (Clear-Bottom, Black, Corning® Costar) with a final volume of 250 µL per well in rows B-H. Each plate was initially prepared with the addition of 16 μL of DMSO to well A3, 20 μL to well A4, 27 μL to well A5, and 40 μL to all remaining wells in row A (A1 and A6-12). Next, the test compound (30 μL of DMSO stock solution) was directly added to well A2 without further modification. Moreover, the test compound (64 μL of DMSO stock solution) was diluted in well A3 to give a total volume of 80 μL. Further dilutions were then conducted by removing 60 µL from well A3 and adding it to A4, followed by removing 53 µL from well A4 and adding it to A5, followed by removing 40 µL from well A5 and adding it to A6, and sequentially removing 40 µL from the remaining wells up to A12. Well A1 served as a DMSO blank.
The sample solutions prepared in row A (2.5 µL from each well) were transferred to the corresponding wells in rows B-H. Dulbecco’s phosphate-buffered saline (DPBS, Gibco®, 1X, no Ca2+ and Mg2+, pH […]
7.1-7.3) was then added to all wells in rows B-H (30 µL each), and the 96-well plate was incubated at 25 °C for 1 min. Next, DPBS (217.5 µL) was added to all wells in rows B-H, and the 96-well plate was once more incubated at 25 °C for 2 h. This procedure provided seven replicate experiments with final concentrations of the test compound (1% DMSO in DPBS) ranging from either 300 to 0.9375 µM or 600 to 1.875 µM in rows B-H, depending on the whether a 30 mM or 60 mM DMSO stock solution was used, respectively (i.e. a 100-fold dilution from sample preparation in row A). After incubation, the plates were analyzed using a NEPHELOstar® microplate reader, and the segmental linear regression data was processed with MARS analysis software (BMG LabTech, see Supplemental Figure S4A for a representative example). […]
Synergy-S diffractometer. The crystal was kept at a steady T = 100.0(3) K during data collection. The structure was solved with the ShelXT 2018/2 (Sheldrick, 2015, Bauer and Gotz, 2021) solution program using dual methods and by using Olex2 1.5-alpha (Dolomanov et al., 2009) as the graphical interface.
The model was refined with olex2.refine 1.5-alpha (Bourhis et al., 2015) using full matrix least squares […]
which were used in all calculations. The final wR2 was 0.0983 (all data) and R1 was 0.0412 (I≥2 s(I)).
Molecule `O=C(CC(F)(F)C(=O)N1N=C(c2c(-c3ccc(Cl)cc3)c3ccccc3[nH]c2=O)CC1c1ccc(Cl)cc1)OCC1CC1` (stereo not drawn) [2n] has a solubility kinetic at 2 h of 27 ± 9 µM.
Molecule `CC(C)(C)COC(=O)CC(F)(F)C(=O)N1N=C(c2c(-c3ccc(Cl)cc3)c3ccccc3[nH]c2=O)CC1c1ccc(Cl)cc1` (stereo not drawn) [2o] has a solubility kinetic at 2 h of 52 ± 6.3 µM.
`O=C(O)CC(F)(F)C(=O)N1N=C(c2c(-c3ccc(Cl)cc3)c3ccccc3[nH]c2=O)CC1c1ccc(Cl)cc1` (stereo not drawn) [2i] showed a solubility kinetic at 2 h of roughly 38 µM.
`O=C(CC(F)(F)C(=O)N1N=C(c2c(-c3ccc(Cl)cc3)c3ccccc3[nH]c2=O)CC1c1ccc(Cl)cc1)OCc1ccccc1` (stereo not drawn) [2p] gave a solubility kinetic at 2 h of 40 ± 12 µM.
`CN(C)C(=O)CC(F)(F)C(=O)N1N=C(c2c(-c3ccc(Cl)cc3)c3ccccc3[nH]c2=O)CC1c1ccc(Cl)cc1` (stereo not drawn) [2r] gave a solubility kinetic at 2 h of 43 ± 5.1 µM.
In the case of `CCOC(=O)CC(F)(F)C(=O)N1N=C(c2c(-c3ccc(Cl)cc3)c3ccccc3[nH]c2=O)CC1c1ccc(Cl)cc1` (stereo not drawn) [2l], the solubility kinetic at 2 h is reported as 43 ± 18 µM.
`CC(C)OC(=O)CC(F)(F)C(=O)N1N=C(c2c(-c3ccc(Cl)cc3)c3ccccc3[nH]c2=O)CC1c1ccc(Cl)cc1` (stereo not drawn) [2m] gave a solubility kinetic at 2 h of 43 ± 10 µM.
`O=C(O)CCC(=O)N1N=C(c2c(-c3ccc(Cl)cc3)c3ccccc3[nH]c2=O)CC1c1ccc(Cl)cc1` (stereo not drawn) [2a] showed a solubility kinetic at 2 h of roughly 208 µM.
In the case of `NC(=O)CC(F)(F)C(=O)N1N=C(c2c(-c3ccc(Cl)cc3)c3ccccc3[nH]c2=O)CC1c1ccc(Cl)cc1` (stereo not drawn) [2k], the solubility kinetic at 2 h is reported as roughly 30 µM.
With `CNC(=O)CC(F)(F)C(=O)N1N=C(c2c(-c3ccc(Cl)cc3)c3ccccc3[nH]c2=O)CC1c1ccc(Cl)cc1` (stereo not drawn) [2q] the solubility kinetic at 2 h was 52 ± 13 µM.

Assay: Liver microsome stability, human
Format: in vitro ADME
Settings: human liver microsomes
Method: Human liver microsomes (HLMs, 20 mg/mL) and CD-1 mouse liver microsomes (MLMs, 20 mg/mL) were purchased from Xenotech. NADPH was purchased from Sigma-Aldrich and prepared in 10 mM stock solutions of distilled H2O (Invitrogen UltraPure). Verapamil and diphenhydramine were both purchased from Sigma-Aldrich and served as positive controls for HLM and MLM stability, respectively. Test compounds and positive controls were initially dissolved in DMSO to make 10 mM stock solutions. Sample solutions were then further diluted in 70% MeOH/H2O or 100% MeCN to 500 μM. Next, the reactions were prepared by mixing human or mouse liver microsomes (55 μL) with potassium phosphate buffer (100 mM, […]) in 1.5 mL Eppendorf tubes. The test compounds (6.6 μL of 500 μM solution) were subsequently added to the suspensions, and the reaction mixtures were incubated at 37 °C for 5 min. Afterward, the liver microsome reactions were initiated with 110 μL of 10 mM NADPH and further incubated at 37 °C for the designated time course of the study. This procedure provided experiments with a final volume of 1100 μL (<0.6% organic solvent content), a concentration for HLMs and MLMs of 1 mg/mL, and a final test compound concentration of 3 μM. Aliquots (100 μL) were removed from each reaction mixture in duplicate at 0, 5, 10, 15, and 30 min time intervals and quenched with 100 μL of cold internal standard solution (ISTD, 2 μM 7-ethoxy-d5-coumarin in MeOH or MeCN). Quenched aliquots were then centrifuged at 12 500 g for 5–10 min, and the resulting supernatants were withdrawn and placed in LC-MS vials to be analyzed by LC-MS/MS (Agilent G6460C QQQ MS coupled with an Infinity II 1260 HPLC). Each test compound was run in tandem with positive and negative control experiments for quality assurance. Positive control reactions were conducted at a final volume of 550 μL for a single run at each time point. Lastly, the negative control experiment was conducted with test compounds and liver microsomes in the absence of NADPH (150 μL) and analyzed at the 30 min time point.
For both LM and plasma assays, each data point was analyzed in triplicate using between blank washes to avoid carry over and to equilibrate the column for the subsequent runs. Averages of these triplicates for individual compounds at each time point were then normalized to the data at 0 min, representing 100% of the test compound remaining or 0% metabolism. Half-lives (t1/2) were calculated by plotting ln of % test compound remaining versus time and performing linear regression to determine slope. Slope = −k and t1/2 = 0.693/k for first-order kinetics (see Figures S5 and S6 for a representative example).
In the case of `O=C(CC(F)(F)C(=O)N1N=C(c2c(-c3ccc(Cl)cc3)c3ccccc3[nH]c2=O)CC1c1ccc(Cl)cc1)OCC1CC1` (stereo not drawn) [2n], the microsomal CLint at 3 μM is reported as 289 µL/min/mg.
`CC(C)(C)COC(=O)CC(F)(F)C(=O)N1N=C(c2c(-c3ccc(Cl)cc3)c3ccccc3[nH]c2=O)CC1c1ccc(Cl)cc1` (stereo not drawn) [2o] showed a microsomal CLint at 3 μM of 187 µL/min/mg.
Work on `O=C(O)CC(F)(F)C(=O)N1N=C(c2c(-c3ccc(Cl)cc3)c3ccccc3[nH]c2=O)CC1c1ccc(Cl)cc1` (stereo not drawn) [2i] yielded a microsomal CLint at 3 μM of less than 23 µL/min/mg.
For `O=C(CC(F)(F)C(=O)N1N=C(c2c(-c3ccc(Cl)cc3)c3ccccc3[nH]c2=O)CC1c1ccc(Cl)cc1)OCc1ccccc1` (stereo not drawn) [2p], the microsomal CLint at 3 μM was 105 µL/min/mg.
`CN(C)C(=O)CC(F)(F)C(=O)N1N=C(c2c(-c3ccc(Cl)cc3)c3ccccc3[nH]c2=O)CC1c1ccc(Cl)cc1` (stereo not drawn) [2r] gave a microsomal CLint at 3 μM of 165 µL/min/mg.
Work on `CCOC(=O)CC(F)(F)C(=O)N1N=C(c2c(-c3ccc(Cl)cc3)c3ccccc3[nH]c2=O)CC1c1ccc(Cl)cc1` (stereo not drawn) [2l] yielded a microsomal CLint at 3 μM of 193 µL/min/mg.
`CC(C)OC(=O)CC(F)(F)C(=O)N1N=C(c2c(-c3ccc(Cl)cc3)c3ccccc3[nH]c2=O)CC1c1ccc(Cl)cc1` (stereo not drawn) [2m] showed a microsomal CLint at 3 μM of 173 µL/min/mg.
With `O=C(O)CCC(=O)N1N=C(c2c(-c3ccc(Cl)cc3)c3ccccc3[nH]c2=O)CC1c1ccc(Cl)cc1` (stereo not drawn) [2a] the microsomal CLint at 3 μM was less than 23 µL/min/mg.
In the case of `NC(=O)CC(F)(F)C(=O)N1N=C(c2c(-c3ccc(Cl)cc3)c3ccccc3[nH]c2=O)CC1c1ccc(Cl)cc1` (stereo not drawn) [2k], the microsomal CLint at 3 μM is reported as less than 23 µL/min/mg.
`CNC(=O)CC(F)(F)C(=O)N1N=C(c2c(-c3ccc(Cl)cc3)c3ccccc3[nH]c2=O)CC1c1ccc(Cl)cc1` (stereo not drawn) [2q] gave a microsomal CLint at 3 μM of 104 µL/min/mg.

Same assay, conditions: liver microsomes, incubation up to 30 min, 3 μM, read-out: liver microsome stability T1/2, human
In the case of `O=C(CC(F)(F)C(=O)N1N=C(c2c(-c3ccc(Cl)cc3)c3ccccc3[nH]c2=O)CC1c1ccc(Cl)cc1)OCC1CC1` (stereo not drawn) [2n], the half-life at 3 μM is reported as 2.4 min.
`CC(C)(C)COC(=O)CC(F)(F)C(=O)N1N=C(c2c(-c3ccc(Cl)cc3)c3ccccc3[nH]c2=O)CC1c1ccc(Cl)cc1` (stereo not drawn) [2o] gave a half-life at 3 μM of 3.7 min.
Molecule `O=C(O)CC(F)(F)C(=O)N1N=C(c2c(-c3ccc(Cl)cc3)c3ccccc3[nH]c2=O)CC1c1ccc(Cl)cc1` (stereo not drawn) [2i] has a half-life at 3 μM greater than 30 min.
For `O=C(CC(F)(F)C(=O)N1N=C(c2c(-c3ccc(Cl)cc3)c3ccccc3[nH]c2=O)CC1c1ccc(Cl)cc1)OCc1ccccc1` (stereo not drawn) [2p], the half-life at 3 μM was 6.6 min.
For `CN(C)C(=O)CC(F)(F)C(=O)N1N=C(c2c(-c3ccc(Cl)cc3)c3ccccc3[nH]c2=O)CC1c1ccc(Cl)cc1` (stereo not drawn) [2r], the half-life at 3 μM was no more than 7 min.
Work on `CCOC(=O)CC(F)(F)C(=O)N1N=C(c2c(-c3ccc(Cl)cc3)c3ccccc3[nH]c2=O)CC1c1ccc(Cl)cc1` (stereo not drawn) [2l] yielded a half-life at 3 μM of 3.6 min.
`CC(C)OC(=O)CC(F)(F)C(=O)N1N=C(c2c(-c3ccc(Cl)cc3)c3ccccc3[nH]c2=O)CC1c1ccc(Cl)cc1` (stereo not drawn) [2m] showed a half-life at 3 μM of 4 min.
Molecule `O=C(O)CCC(=O)N1N=C(c2c(-c3ccc(Cl)cc3)c3ccccc3[nH]c2=O)CC1c1ccc(Cl)cc1` (stereo not drawn) [2a] has a half-life at 3 μM greater than 30 min.
`NC(=O)CC(F)(F)C(=O)N1N=C(c2c(-c3ccc(Cl)cc3)c3ccccc3[nH]c2=O)CC1c1ccc(Cl)cc1` (stereo not drawn) [2k] gave a half-life at 3 μM greater than 30 min.
`CNC(=O)CC(F)(F)C(=O)N1N=C(c2c(-c3ccc(Cl)cc3)c3ccccc3[nH]c2=O)CC1c1ccc(Cl)cc1` (stereo not drawn) [2q] gave a half-life at 3 μM of no more than 7 min.

Same assay, conditions: liver microsomes, over the assay time course (30 min), read-out: % remaining, human LMs
In the case of `O=C(O)CC(F)(F)C(=O)N1N=C(c2c(-c3ccc(Cl)cc3)c3ccccc3[nH]c2=O)CC1c1ccc(Cl)cc1` (stereo not drawn) [2i], the remaining at 0.5 h, 3 µM is reported as greater than 95%.
`O=C(O)CCC(=O)N1N=C(c2c(-c3ccc(Cl)cc3)c3ccccc3[nH]c2=O)CC1c1ccc(Cl)cc1` (stereo not drawn) [2a] showed a remaining at 0.5 h, 3 µM greater than 95%.
In the case of `NC(=O)CC(F)(F)C(=O)N1N=C(c2c(-c3ccc(Cl)cc3)c3ccccc3[nH]c2=O)CC1c1ccc(Cl)cc1` (stereo not drawn) [2k], the remaining at 0.5 h, 3 µM is reported as greater than 90%.

— article PMC10485906, “Development of a Dihydroquinoline–Pyrazoline GluN2C/2D-Selective Negative Allosteric Modulator of the N-Methyl-D-aspartate Receptor” (ACS Chemical Neuroscience, 2023)
